Test results from ChEMBL document CHEMBL5260810, “Inhibition of bromodomain-containing protein 9 for the prevention of epigenetically-defined drug resistance” (Bioorg Med Chem Lett, 2017).

Legend:
Format in all cases: functional, cell-based
EJM = test: Cytotoxicity against human EJM cells measured after 8 days; conditions: 192 h
EL4 = test: Cytotoxicity against mouse EL4 cells measured after 8 days; conditions: EL4, 192 h
JIYOYE = test: Cytotoxicity against human JIYOYE cells measured after 8 days; conditions: 192 h
LXFL 529 = test: Cytotoxicity against human LXFL 529 cells measured after 8 days; conditions: LXFL 529, 192 h
[1] = Cytotoxicity against human NCI-H2461 cells measured after 8 days; conditions: NCI-H2461, 192 h
MHH-ES-1 = test: Cytotoxicity against human MHH-ES-1 cells measured after 8 days; conditions: MHH-ES-1, 192 h
U2OS = test: Cytotoxicity against human U2OS cells measured after 8 days; conditions: 192 h
CHP-212 = test: Cytotoxicity against human CHP-212 cells measured after 8 days; conditions: CHP-212, 192 h
[2] = Cytotoxicity against human NCE-G 140 cells measured after 8 days; conditions: NCE-G 140, 192 h
GB-1 = test: Cytotoxicity against human GB-1 cells measured after 8 days; conditions: GB-1, 192 h
Hs 683 = test: Cytotoxicity against human Hs 683 cells measured after 8 days; conditions: Hs 683, 192 h
FaDu = test: Cytotoxicity against human FaDu cells measured after 8 days; conditions: 192 h
BHY = test: Cytotoxicity against human BHY cells measured after 8 days; conditions: 192 h
[3] = Cytotoxicity against human BICR 10 cells measured after 8 days; conditions: BICR 10, 192 h
[4] = Cytotoxicity against human COV362.4 cells measured after 8 days; conditions: COV362.4, 192 h
BT-474 = test: Cytotoxicity against human BT-474 cells measured after 8 days; conditions: BT-474, 192 h
[5] = Cytotoxicity against human COV504 cells measured after 8 days; conditions: COV504, 192 h
OVCAR-4 = test: Cytotoxicity against human OVCAR-4 cells measured after 8 days; conditions: OVCAR-4, 192 h
CAPAN-1 = test: Cytotoxicity against human CAPAN-1 cells measured after 8 days; conditions: CAPAN-1, 192 h
CFPAC-1 = test: Cytotoxicity against human CFPAC-1 cells measured after 8 days; conditions: CFPAC-1, 192 h
HPAF-II = test: Cytotoxicity against human HPAF-II cells measured after 8 days; conditions: 192 h
HuP-T3 = test: Cytotoxicity against human HuP-T3 cells measured after 8 days; conditions: HuP-T3, 192 h
BOKU = test: Cytotoxicity against human BOKU cells measured after 8 days; conditions: 192 h
HEp-2 = test: Cytotoxicity against human HEp-2 cells measured after 8 days; conditions: HEp-2, 192 h
[6] = Cytotoxicity against human MS751 cells measured after 8 days; conditions: MS751, 192 h
[7] = Cytotoxicity against human KCI-MOH1 cells measured after 8 days; conditions: KCI-MOH1, 192 h
[8] = Cytotoxicity against human CL-11 cells measured after 8 days; conditions: CL-11, 192 h
PANC-1 = test: Cytotoxicity against human PANC-1 cells measured after 8 days; conditions: PANC-1, 192 h
[9] = Cytotoxicity against human PK-45P cells measured after 8 days; conditions: 192 h
[10] = Cytotoxicity against human PK-8 cells measured after 8 days; conditions: PK-8, 192 h
YAPC = test: Cytotoxicity against human YAPC cells measured after 8 days; conditions: 192 h
HT55 = test: Cytotoxicity against human HT55 cells measured after 8 days; conditions: HT55, 192 h
RCM-1 = test: Cytotoxicity against human RCM-1 cells measured after 8 days; conditions: RCM-1, 192 h
B16-F10 = test: Cytotoxicity against mouse B16-F10 Luciferase cells measured after 8 days; conditions: B16-F10, 192 h
OE33 = test: Cytotoxicity against human OE33 cells measured after 8 days; conditions: OE33, 192 h
[11] = Cytotoxicity against human COLO 858 cells measured after 8 days; conditions: COLO 858, 192 h
[12] = Cytotoxicity against human FA9JTOTERT cells measured after 8 days; conditions: 192 h
A498 = test: Cytotoxicity against human A498 cells measured after 8 days; conditions: A498, 192 h
CAKI-2 = test: Cytotoxicity against human CAKI-2 cells measured after 8 days; conditions: CAKI-2, 192 h
[13] = Cytotoxicity against human VMRC-RCW cells measured after 8 days; conditions: 192 h
LOX IMVI = test: Cytotoxicity against human LOX IMVI cells measured after 8 days; conditions: 192 h
MDA-MB-435 = test: Cytotoxicity against human MDA-MB-435 cells measured after 8 days; conditions: MDA-MB-435, 192 h
SK-MEL-24 = test: Cytotoxicity against human SK-MEL-24 cells measured after 8 days; conditions: SK-MEL-24, 192 h
[14] = Cytotoxicity against human HLF cells measured after 8 days; conditions: 192 h
[15] = Cytotoxicity against human HuH-1 cells measured after 8 days; conditions: HuH-1, 192 h
[16] = Cytotoxicity against human JHH7 cells measured after 8 days; conditions: JHH7, 192 h
SK-HEP1 = test: Cytotoxicity against human SK-HEP1 cells measured after 8 days; conditions: SK-HEP1, 192 h
23132-87 = test: Cytotoxicity against human 23132-87 cells measured after 8 days; conditions: 23132-87, 192 h
Hs746T = test: Cytotoxicity against human Hs746T cells measured after 8 days; conditions: 192 h
MKN-74 = test: Cytotoxicity against human MKN-74 cells measured after 8 days; conditions: MKN-74, 192 h
[17] = Cytotoxicity against human RERF-GC-1B cells measured after 8 days; conditions: 192 h
[18] = Cytotoxicity against human SNU-216 cells measured after 8 days; conditions: SNU-216, 192 h
[19] = Cytotoxicity against mouse AE17 cells measured after 8 days; conditions: AE17, 192 h
COR-L279 = test: Cytotoxicity against human COR-L279 cells measured after 8 days; conditions: COR-L279, 192 h
COR-L47 = test: Cytotoxicity against human COR-L47 cells measured after 8 days; conditions: COR-L47, 192 h
[20] = Cytotoxicity against human SNU-668 cells measured after 8 days; conditions: SNU668, 192 h
8505C = test: Cytotoxicity against human 8505C cells measured after 8 days; conditions: 192 h
[21] = Cytotoxicity against human UM-UC-1 cells measured after 8 days; conditions: UM-UC-1, 192 h
[22] = Cytotoxicity against human HCC15 cells measured after 8 days; conditions: HCC15, 192 h
HEC-1-A = test: Cytotoxicity against human HEC-1-A cells measured after 8 days; conditions: 192 h
HEC-1B cell line = test: Cytotoxicity against human HEC-1B cell line measured after 8 days; conditions: 192 h
[23] = Cytotoxicity against human HEC-6 cells measured after 8 days; conditions: HEC-6, 192 h
Ishikawa = test: Cytotoxicity against human Ishikawa cells measured after 8 days; conditions: 192 h

SMILES: C/C=C/Cn1cc(-c2ccc(C(C)(C)O)cc2OC)c2cc[nH]c2c1=O
- IC50 (EJM): 20 µM
- IC50 (EL4): 20 µM
- IC50 (JIYOYE): 13.5 µM
- IC50 (LXFL 529): 20 µM
- IC50 [1]: 20 µM
- IC50 (MHH-ES-1): 20 µM
- IC50 (U2OS): 20 µM
- IC50 (CHP-212): 20 µM
- IC50 [2]: 20 µM
- IC50 (GB-1): 20 µM
- IC50 (Hs 683): 20 µM
- IC50 (FaDu): 20 µM
- IC50 (BHY): 20 µM
- IC50 [3]: 20 µM
- IC50 [4]: 20 µM
- IC50 (BT-474): 20 µM
- IC50 [5]: 20 µM
- IC50 (OVCAR-4): 20 µM
- IC50 (CAPAN-1): 20 µM
- IC50 (CFPAC-1): 20 µM
- IC50 (HPAF-II): 20 µM
- IC50 (HuP-T3): 14.1 µM
- IC50 (BOKU): 20 µM
- IC50 (HEp-2): 20 µM
- IC50 [6]: 20 µM
- IC50 [7]: 20 µM
- IC50 [8]: 20 µM
- IC50 (PANC-1): 20 µM
- IC50 [9]: 20 µM
- IC50 [10]: 20 µM
- IC50 (YAPC): 20 µM
- IC50 (HT55): 20 µM
- IC50 (RCM-1): 20 µM
- IC50 (B16-F10): 20 µM
- IC50 (OE33): 20 µM
- IC50 [11]: 20 µM
- IC50 [12]: 20 µM
- IC50 (A498): 20 µM
- IC50 (CAKI-2): 20 µM
- IC50 [13]: 20 µM
- IC50 (LOX IMVI): 20 µM
- IC50 (MDA-MB-435): 11.1 µM
- IC50 (SK-MEL-24): 20 µM
- IC50 [14]: 20 µM
- IC50 [15]: 20 µM
- IC50 [16]: 17.8 µM
- IC50 (SK-HEP1): 20 µM
- IC50 (23132-87): 20 µM
- IC50 (Hs746T): 20 µM
- IC50 (MKN-74): 20 µM
- IC50 [17]: 20 µM
- IC50 [18]: 20 µM
- IC50 [19]: 20 µM
- IC50 (COR-L279): 20 µM
- IC50 (COR-L47): 20 µM
- IC50 [20]: 20 µM
- IC50 (8505C): 20 µM
- IC50 [21]: 20 µM
- IC50 [22]: 20 µM
- IC50 (HEC-1-A): 20 µM
- IC50 (HEC-1B cell line): 20 µM
- IC50 [23]: 20 µM
- IC50 (Ishikawa): 20 µM
